These results are taken from paper PMC3402595 (Breast Cancer Research and Treatment, 2012).

The nature of series [1]: Precipitation of Olaparib. In kind it is physicochemical.
In series [2] the target is T1, BRCT(BRCA1) (Homo sapiens, UniProt P38398). The settings on record: systematic structure activity relationship study; ref [3]; cited from earlier work.
Series [3] deals with T1, BRCT(BRCA1). Description: Competitive fluorescence polarization, inhibition of BRCT. The format is binding.

The structures appear in SMILES notation. Where a SMILES comes first, the peptide text is derived from it. [ ]: non-standard residue; d: D form. pS = N[C@@H](COP(=O)(O)O)C(=O)O

T1 sequence (P38398 1646-1859 limits assumed): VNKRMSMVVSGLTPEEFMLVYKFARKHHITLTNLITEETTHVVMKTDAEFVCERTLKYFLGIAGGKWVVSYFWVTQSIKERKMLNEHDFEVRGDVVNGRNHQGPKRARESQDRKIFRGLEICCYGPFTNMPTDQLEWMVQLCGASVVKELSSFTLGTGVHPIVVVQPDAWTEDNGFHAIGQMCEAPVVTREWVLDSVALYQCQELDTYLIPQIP

As for `O=C(c1cc(Cc2n[nH]c(=O)c3ccccc23)ccc1F)N1CCN(C(=O)C2CC2)CC1` [Olaparib], the “concentration at which precipitation of Olaparib was observed” value in series [1] is on record as “higher than 25 μM”. With `CC(=O)N[C@@H](COP(=O)(O)O)C(=O)N1CCC[C@H]1C(=O)N[C@H](C(=O)N[C@@H](Cc1ccccc1)C(=O)O)[C@@H](C)O` [Inhibitor 1, Ac-pSPTF-CO2H] (Ac-[pS]PTF-OH), the “binding affinity for BRCT(BRCA1)” value on BRCT(BRCA1) [2] is recorded as “nanomolar binding affinities”. On BRCT(BRCA1) [3], this compound yielded a Ki of 0.23 ± 0.06 µM.

As usually defined, the Ki is a measure of affinity in units of concentration, obtained from inhibition or displacement. A high value points to lower affinity.
